In ChEMBL document CHEMBL2216751, “PI3Kδ and PI3Kγ as targets for autoimmune and inflammatory diseases” (J Med Chem, 2012):

Tests used:
[1] = target: T1, Phosphatidylinositol 4,5-bisphosphate 3-kinase catalytic subunit delta isoform (Homo sapiens, UniProt O00329); assay: Inhibition of PI3Kdelta-mediated AKT phosphorylation in human Ramos cells by ELISA; assay type: cell-based
T1 sequence (O00329 whole entry): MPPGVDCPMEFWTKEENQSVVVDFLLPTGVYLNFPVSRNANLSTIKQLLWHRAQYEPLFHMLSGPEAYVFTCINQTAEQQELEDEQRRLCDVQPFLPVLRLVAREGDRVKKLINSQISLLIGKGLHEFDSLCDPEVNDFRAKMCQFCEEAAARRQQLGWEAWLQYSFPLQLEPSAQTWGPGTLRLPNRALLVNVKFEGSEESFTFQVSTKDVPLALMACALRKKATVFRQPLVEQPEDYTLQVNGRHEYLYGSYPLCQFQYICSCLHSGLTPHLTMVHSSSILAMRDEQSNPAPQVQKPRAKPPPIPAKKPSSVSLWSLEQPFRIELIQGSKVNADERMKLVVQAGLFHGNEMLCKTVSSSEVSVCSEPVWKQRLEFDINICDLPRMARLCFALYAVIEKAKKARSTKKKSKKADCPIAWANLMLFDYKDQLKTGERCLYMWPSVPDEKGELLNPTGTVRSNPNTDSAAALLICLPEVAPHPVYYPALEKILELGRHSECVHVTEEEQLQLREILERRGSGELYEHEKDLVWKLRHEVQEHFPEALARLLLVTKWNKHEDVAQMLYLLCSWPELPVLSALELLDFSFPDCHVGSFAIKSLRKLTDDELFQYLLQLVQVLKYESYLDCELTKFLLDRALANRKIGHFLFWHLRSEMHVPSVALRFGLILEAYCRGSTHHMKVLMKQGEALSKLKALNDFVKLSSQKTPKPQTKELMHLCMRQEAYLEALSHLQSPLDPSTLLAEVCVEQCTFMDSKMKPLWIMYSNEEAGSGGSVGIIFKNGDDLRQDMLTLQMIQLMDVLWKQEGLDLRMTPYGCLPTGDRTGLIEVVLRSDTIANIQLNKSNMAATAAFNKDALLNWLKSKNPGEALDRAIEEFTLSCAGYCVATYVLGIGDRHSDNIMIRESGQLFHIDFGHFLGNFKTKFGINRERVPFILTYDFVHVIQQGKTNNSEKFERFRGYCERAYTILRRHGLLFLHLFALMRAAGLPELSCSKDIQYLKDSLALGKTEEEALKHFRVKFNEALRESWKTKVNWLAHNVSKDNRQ

[2] = target: T1, Phosphatidylinositol 4,5-bisphosphate 3-kinase catalytic subunit delta isoform
[3] = target: T1, Phosphatidylinositol 4,5-bisphosphate 3-kinase catalytic subunit delta isoform; assay: Inhibition of PI3Kdelta in human whole blood assessed as inhibition of CD69 production in B lymphocyte by immunoassay
Mus musculus = assay: Antiinflammatory activity in LPS-induced COPD BALB/c mouse model assessed as reduction in pulmonary neutrophilia at 0.3 mg/kg, ip qd; assay type: functional; parameters: scale not given: the % may be the effect or the level left; conditions: route intraperitoneal
Rattus norvegicus [4] = assay: Antiinflammatory activity in rat assessed as inhibition of Streptococcal cell wall-induced rat paw edema at 30 mg/kg; assay type: functional
Rattus norvegicus [5] = assay: Antiinflammatory activity in rat assessed as inhibition of Streptococcal cell wall-induced rat paw edema; assay type: functional; conditions: read-out: ID50 (the source's name)
[6] = target: T1, Phosphatidylinositol 4,5-bisphosphate 3-kinase catalytic subunit delta isoform; assay: Inhibition of PI3Kdelta by cell-based assay
[7] = target: T2, Phosphatidylinositol 4,5-bisphosphate 3-kinase catalytic subunit gamma isoform (Homo sapiens, UniProt P48736); assay: Inhibition of PI3Kgamma-mediated Akt phosphorylation in T cells by flow cytometry; assay type: cell-based, T-cell
Target sequence in this assay (P48736 whole entry, canonical isoform): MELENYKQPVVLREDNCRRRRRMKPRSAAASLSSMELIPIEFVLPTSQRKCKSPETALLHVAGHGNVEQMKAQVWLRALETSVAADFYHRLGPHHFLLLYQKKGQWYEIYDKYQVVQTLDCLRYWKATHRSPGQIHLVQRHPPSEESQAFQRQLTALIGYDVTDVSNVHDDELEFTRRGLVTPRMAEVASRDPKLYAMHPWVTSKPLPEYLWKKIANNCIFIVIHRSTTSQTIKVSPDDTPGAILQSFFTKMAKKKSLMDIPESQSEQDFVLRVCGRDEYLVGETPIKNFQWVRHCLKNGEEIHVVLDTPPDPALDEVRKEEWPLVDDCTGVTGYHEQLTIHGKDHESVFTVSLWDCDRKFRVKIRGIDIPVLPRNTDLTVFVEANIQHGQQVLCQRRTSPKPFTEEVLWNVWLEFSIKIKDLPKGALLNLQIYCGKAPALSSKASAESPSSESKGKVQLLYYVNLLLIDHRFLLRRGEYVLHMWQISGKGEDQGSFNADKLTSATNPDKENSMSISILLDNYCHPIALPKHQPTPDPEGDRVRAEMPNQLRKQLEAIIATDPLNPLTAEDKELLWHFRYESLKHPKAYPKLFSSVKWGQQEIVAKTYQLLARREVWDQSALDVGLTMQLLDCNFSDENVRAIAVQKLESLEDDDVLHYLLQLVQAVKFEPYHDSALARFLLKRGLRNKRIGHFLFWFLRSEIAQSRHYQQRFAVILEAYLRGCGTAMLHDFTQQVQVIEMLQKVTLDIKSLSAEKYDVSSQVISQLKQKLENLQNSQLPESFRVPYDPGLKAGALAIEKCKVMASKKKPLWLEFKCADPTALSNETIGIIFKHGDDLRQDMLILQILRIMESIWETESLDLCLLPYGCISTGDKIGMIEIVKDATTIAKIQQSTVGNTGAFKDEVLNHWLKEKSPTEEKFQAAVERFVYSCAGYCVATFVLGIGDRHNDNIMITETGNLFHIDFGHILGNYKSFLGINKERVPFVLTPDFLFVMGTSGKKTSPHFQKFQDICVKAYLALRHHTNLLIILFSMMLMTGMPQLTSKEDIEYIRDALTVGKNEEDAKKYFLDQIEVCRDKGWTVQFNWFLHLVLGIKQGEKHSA

Homo sapiens [8] = assay: Toxicity in healthy human administered bid up to 7 days; assay type: organism-based; conditions: in vivo, 168 h
Homo sapiens [9] = species: Homo sapiens; assay: Toxicity in healthy human; assay type: organism-based; conditions: in vivo
Homo sapiens [10] = species: Homo sapiens; assay: Antitumor activity in Non-Hodgkin Lymphoma patient assessed as clinical response rate at 50 to 350 mg, bid; assay type: functional
[11] = target: Phosphatidylinositol 4,5-bisphosphate 3-kinase catalytic subunit beta isoform (Homo sapiens) (UniProt P42338); assay: Inhibition of PI3Kbeta at 1 uM
Phosphatidylinositol 4,5-bisphosphate 3-kinase catalytic subunit beta isoform (Homo sapiens), sequence (P42338 whole entry, looked up, canonical isoform): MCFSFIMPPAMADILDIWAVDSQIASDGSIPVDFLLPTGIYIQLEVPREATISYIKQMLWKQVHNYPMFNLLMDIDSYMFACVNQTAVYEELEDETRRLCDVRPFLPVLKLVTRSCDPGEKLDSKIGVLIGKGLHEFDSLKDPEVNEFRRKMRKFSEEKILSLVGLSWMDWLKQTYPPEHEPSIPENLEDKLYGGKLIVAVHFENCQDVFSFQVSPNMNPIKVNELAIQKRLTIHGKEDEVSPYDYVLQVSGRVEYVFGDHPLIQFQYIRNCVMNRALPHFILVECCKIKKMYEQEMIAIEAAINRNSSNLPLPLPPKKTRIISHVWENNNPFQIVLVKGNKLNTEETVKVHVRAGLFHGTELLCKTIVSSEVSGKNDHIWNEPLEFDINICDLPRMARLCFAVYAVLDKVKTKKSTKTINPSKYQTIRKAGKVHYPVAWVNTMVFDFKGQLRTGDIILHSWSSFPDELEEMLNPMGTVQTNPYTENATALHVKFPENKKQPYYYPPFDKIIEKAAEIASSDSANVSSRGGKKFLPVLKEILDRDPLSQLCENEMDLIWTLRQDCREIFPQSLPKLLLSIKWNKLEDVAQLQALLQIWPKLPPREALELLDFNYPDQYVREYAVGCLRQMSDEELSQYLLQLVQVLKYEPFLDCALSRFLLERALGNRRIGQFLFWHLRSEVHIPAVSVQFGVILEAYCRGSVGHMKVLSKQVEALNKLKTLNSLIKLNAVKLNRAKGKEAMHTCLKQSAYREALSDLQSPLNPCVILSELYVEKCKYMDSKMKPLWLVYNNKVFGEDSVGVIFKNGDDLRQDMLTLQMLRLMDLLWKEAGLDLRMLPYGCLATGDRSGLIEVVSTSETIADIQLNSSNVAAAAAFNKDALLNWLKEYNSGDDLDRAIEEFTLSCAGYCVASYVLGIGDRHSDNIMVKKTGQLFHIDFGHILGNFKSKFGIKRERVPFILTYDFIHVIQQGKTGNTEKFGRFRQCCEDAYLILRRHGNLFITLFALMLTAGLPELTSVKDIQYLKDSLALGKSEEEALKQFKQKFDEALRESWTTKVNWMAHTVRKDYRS

[12] = target: Phosphatidylinositol 4,5-bisphosphate 3-kinase catalytic subunit alpha isoform (Homo sapiens) (UniProt P42336); assay: Inhibition of PI3Kalpha at 1 uM
Phosphatidylinositol 4,5-bisphosphate 3-kinase catalytic subunit alpha isoform (Homo sapiens), sequence (P42336 whole entry, canonical isoform): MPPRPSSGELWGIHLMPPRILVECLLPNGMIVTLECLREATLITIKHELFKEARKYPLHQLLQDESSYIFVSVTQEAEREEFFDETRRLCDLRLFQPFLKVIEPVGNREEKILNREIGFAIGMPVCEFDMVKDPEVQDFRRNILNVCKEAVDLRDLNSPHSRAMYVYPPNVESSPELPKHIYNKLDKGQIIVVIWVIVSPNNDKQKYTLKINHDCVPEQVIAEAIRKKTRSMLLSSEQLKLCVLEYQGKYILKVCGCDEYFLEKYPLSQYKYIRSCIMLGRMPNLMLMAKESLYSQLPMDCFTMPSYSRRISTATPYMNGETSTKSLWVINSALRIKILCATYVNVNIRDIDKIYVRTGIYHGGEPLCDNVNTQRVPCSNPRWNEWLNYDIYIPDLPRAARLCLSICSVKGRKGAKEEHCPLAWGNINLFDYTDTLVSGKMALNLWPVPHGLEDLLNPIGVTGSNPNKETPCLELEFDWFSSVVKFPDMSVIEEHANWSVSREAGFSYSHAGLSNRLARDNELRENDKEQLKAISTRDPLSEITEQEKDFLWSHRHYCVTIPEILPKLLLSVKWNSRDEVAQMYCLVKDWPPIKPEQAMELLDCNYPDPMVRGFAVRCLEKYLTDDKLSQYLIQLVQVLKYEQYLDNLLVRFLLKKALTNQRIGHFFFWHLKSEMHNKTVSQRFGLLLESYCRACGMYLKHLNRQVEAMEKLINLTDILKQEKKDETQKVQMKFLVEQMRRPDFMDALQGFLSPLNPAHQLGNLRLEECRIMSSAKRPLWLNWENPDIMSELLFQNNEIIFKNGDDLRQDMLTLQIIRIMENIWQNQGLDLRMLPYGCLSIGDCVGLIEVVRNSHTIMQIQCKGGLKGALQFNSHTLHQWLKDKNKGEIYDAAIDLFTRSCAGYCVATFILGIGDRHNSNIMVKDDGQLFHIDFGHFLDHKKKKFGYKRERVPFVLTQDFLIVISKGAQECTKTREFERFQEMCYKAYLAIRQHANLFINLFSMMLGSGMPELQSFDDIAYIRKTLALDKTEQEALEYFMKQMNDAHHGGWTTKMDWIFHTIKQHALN

[13] = target: T2, Phosphatidylinositol 4,5-bisphosphate 3-kinase catalytic subunit gamma isoform; assay: Inhibition of PI3Kgamma at 1 uM
Target sequence in this assay (P48736 whole entry, looked up, canonical isoform): as the sequence (P48736 whole entry, canonical isoform) above

[14] = target: T1, Phosphatidylinositol 4,5-bisphosphate 3-kinase catalytic subunit delta isoform; assay: Inhibition of PI3Kdelta in neutrophil assessed as inhibition of superoxide production by cell-based assay
[15] = Oral bioavailability in Han-Wistar rat; assay type: ADME, organism-based; conditions: in vivo
[16] = Clearance in Han-Wistar rat; assay type: ADME, organism-based; conditions: in vivo
[17] = target: Serine/threonine-protein kinase mTOR (Homo sapiens) (UniProt P42345); assay: Inhibition of mTOR
[18] = target: T1, Phosphatidylinositol 4,5-bisphosphate 3-kinase catalytic subunit delta isoform; assay: Inhibition of PI3Kdelta in human PBMC
[19] = target: T3, Phosphatidylinositol 4,5-bisphosphate 3-kinase catalytic subunit delta isoform (Homo sapiens) (UniProt O00329); assay: Inhibition of PI3Kdelta-mediated Akt phosphorylation at 10 uM by cell-based assay
T3 sequence (whole entry): T1 sequence (O00329 whole entry)

CC(Nc1ncnc2[nH]cnc12)c1cc(Cl)c2cncn2c1-c1cccc(F)c1 (configuration not stated)
IC50 [1]: < 100 nM | IC50 ([2]; read-out: IC50): < 100 nM

Cc1nc(NC(=O)NCCC(=O)OC(C)(C)C)sc1-c1ccc(S(C)(=O)=O)c(F)c1
IC50 ([2]; read-out: IC50): 16 nM

CC(=O)Nc1nc2c(s1)-c1c(c(C3CC3)nn1C1CCC(C(=O)N[C@H]3CC[C@H](N4CCCC4)CC3)CC1)CC2 (some centres not stated)
IC50 ([2]; read-out: IC50): < 600 nM

CN(C)CCCOc1cccc2c1nc(C(F)F)n2-c1nc(OC2CCN(C(=O)CCl)CC2)nc(N2CCOCC2)n1
IC50 ([2]; read-out: IC50): > 100 nM

CN(C)C1CCN(Cc2cc3nc(-c4cccc5[nH]ccc45)nc(N4CCOCC4)c3s2)CC1
Ki [2]: 4.9 nM | IC50 [3]: 17 nM

Nc1ncc(-c2ccc(Cl)c(S(=O)(=O)Nc3ccccc3)c2)nc1C(=O)c1cccnc1
IC50 ([2]; read-out: IC50): 12 nM

C[C@H](Nc1ncnc2[nH]cnc12)c1nc2ccsc2c(=O)n1-c1ccccc1
IC50 ([2]; read-out: IC50): 6 nM

C[C@@H]1CN(Cc2nnc(-c3cc(-c4cccc5[nH]ccc45)cc4[nH]ncc34)o2)C[C@H](C)O1
pIC50 [2]: >= 5

CCN(CC)C(=O)c1cccc(Nc2nc3ccc(-c4cncc(OC)c4)cc3s2)n1
Ki [2]: 3 nM

O=C(CN1CCOCC1)Nc1cc(-c2cc(F)cc3[nH]ccc23)cc2[nH]ncc12
pIC50 [2]: >= 5

C[C@@H](c1nc2ccsc2c(=O)n1-c1ccccc1)n1cnc2c(N)ncnc21
IC50 ([2]; read-out: IC50): 40 nM

Cc1cccc2cc(Cn3cnc4c(N)ncnc43)c(N(C)CC3CCCN3C)nc12 (configuration not stated)
IC50 ([2]; read-out: IC50): < 50 nM

CCNC(=O)Nc1nc2ccc(-c3cncc(C(F)(F)F)c3)cc2s1
Ki [2]: 10 nM

C[C@@H]1C[C@H]2[C@@H]3CCC4=CC(=O)C=C[C@]4(C)[C@@]3(F)[C@@H](O)C[C@]2(C)[C@@]1(O)C(=O)CO [DEXAMETHASONE]
Activity (Mus musculus): 70%

O=C(Nc1nn[nH]n1)c1cnc(N2CCOCC2)nc1OC1CCCCCC1
IC50 ([2]; read-out: IC50): 197 nM | inhibition in vivo at 30 mg/kg (Rattus norvegicus [4]): 52% | ED50 (Rattus norvegicus [5]): 16.3 mg/kg

CC(=O)Nc1ccc(C(=O)NC2=Nc3cc(N4CCOCC4)ccc3C3=NCCN23)cn1
IC50 ([2]; read-out: IC50): < 100 nM

CNc1nc(C)c2cc(-c3cc(O)cc(F)c3)ccc2n1
IC50 ([2]; read-out: IC50): < 100 nM

Cc1ccccc1-n1c(Cn2nc(-c3cc(O)cc(F)c3)c3c(N)ncnc32)nc2scc(C)c2c1=O
IC50 ([2]; read-out: IC50): < 100 nM | IC50 [6]: < 100 nM

Cc1c(-c2ccccn2)nc2cc(F)cc(F)c2c1Nc1cc(N2CCOCC2)cnc1-c1ccc(O)cc1
Ki [2]: 2.85 nM

CN1CCOC(C(=O)Nc2cc(-c3cccc4[nH]ccc34)cc3[nH]ncc23)C1 (configuration not stated)
pIC50 [2]: >= 5 | IC50 [7]: ≤ 1000 nM

CC(=O)NCCNS(=O)(=O)c1ccc(-c2sc(NC(C)=O)nc2C)o1
Ki [2]: 100 nM

c1ccc2c(N3CCOCC3)nc(-c3cccc4[nH]ccc34)cc2c1
IC50 ([2]; read-out: IC50): 260 nM

CC(C)N1CCN(Cc2cnc(-c3cc(-c4cccc5[nH]ccc45)cc4[nH]ncc34)o2)CC1 [NEMIRALISIB]
IC50 ([2]; read-out: pIC50 (converted)): < 100 nM

COc1ccc(-c2ccc3c(n2)N(C2=NC(=O)C(C)(C)S2)CCO3)cc1OC
IC50 ([2]; read-out: IC50): 27 nM

CC[C@H](Nc1ncnc2[nH]cnc12)c1nc2cccc(F)c2c(=O)n1-c1ccccc1 [IDELALISIB]
MTD (Homo sapiens [8]): 200 mg | MTD (Homo sapiens [9]): 400 mg | Activity (Homo sapiens [10]): 56%

Clc1ccc(-c2nc(N3CCOCC3)sc2-c2nnc[nH]2)c(Cl)c1
IC50 ([2]; read-out: IC50): < 100 nM

CC(Nc1ncnc2[nH]cnc12)c1c(C#N)c2ccc(Cl)cc2n1-c1cccc(F)c1 (configuration not stated)
IC50 ([2]; read-out: IC50): < 50 nM

CC(C)c1nc2ccccc2n1-c1nc(N2CCOCC2)c2nc(OC3CN(C4CCS(=O)(=O)CC4)C3)n(C)c2n1
IC50 [3]: 3 nM

Cn1c(C(=O)NCC(F)(F)F)nc2c(N3CCC(n4c(=O)[nH]c5ncccc54)CC3)ncnc21
IC50 ([2]; read-out: IC50): < 50 nM

CC(c1oc2ccccc2c(=O)c1-c1cccc(F)c1)n1cnc2c(N)ncnc21 (configuration not stated)
IC50 ([2]; read-out: IC50): < 250 nM | inhibition [11]: < 25% | inhibition [12]: < 25% | inhibition [13]: < 25%

Cc1oc2ncn(CC(C)C)c(=O)c2c1C(=O)NCc1ccccc1
IC50 ([2]; read-out: IC50): 2100 nM

CCOC(=O)CCNC(=O)Nc1nc2c(s1)CN(c1cnc(Cl)c(OC)c1)CC2
Ki [2]: 3 nM

CS(=O)(=O)N1CCN(Cc2cc3nc(-c4c(F)ccc5[nH]ccc45)nc(N4CCOCC4)c3s2)CC1
IC50 ([2]; read-out: IC50): < 100 nM

C[C@H](Nc1ncnc(N)c1C#N)c1nc2ccc(F)cc2c(NCCS(C)(=O)=O)c1-c1ccccc1
Ki [2]: 2.26 nM

Cc1cccc2cc(C(C)Nc3ncnc4[nH]cnc34)nc(OC3CCN(C)CC3)c12 (configuration not stated)
IC50 ([2]; read-out: IC50): < 100 nM

COc1ccc(NC(=O)c2c(C)oc3ncn(CC(C)C)c(=O)c23)cc1
IC50 ([2]; read-out: IC50): 5.9 nM

Cn1cc(-c2ccc3c(c2)N(C2=NC4CC(C)(C)NC(=O)C4S2)CCO3)cn1 (configuration not stated)
IC50 [14]: 111 nM | bioavailability [15]: 97% | clearance [16]: 7 mL/min/kg

Cc1nc2ccccc2n1-c1nc(N2CCOCC2)c2oc(CN3CCN(C(C)(C)C(N)=O)CC3)cc2n1
IC50 [3]: 17.8 nM

CC(=O)Nc1nc(C)c(-c2ccc(Cl)c(S(=O)(=O)N[C@@H](C)C(=O)OC3CCCC3)c2)s1
IC50 ([2]; read-out: IC50): < 100 nM

O=C(NCC(=O)N1CCCC1)Nc1nc2ccc(-c3cncc(C(F)(F)F)c3)cn2n1
IC50 ([2]; read-out: IC50): < 100 nM

Cc1ccc(-c2ccc3c(c2)N(C2=NC4CC(C)(C)NC(=O)C4S2)CCO3)nn1 (configuration not stated)
bioavailability [15]: 66%

CC(=O)Nc1nc(C)c(-c2csc(C(=O)Nc3nnn[nH]3)n2)s1
IC50 ([2]; read-out: IC50): 13 nM

COc1ccc(-c2cc(-c3ncc(CN4C[C@@H](C)O[C@@H](C)C4)o3)c3cn[nH]c3c2)cc1NS(C)(=O)=O
IC50 ([2]; read-out: pIC50 (converted)): < 100 nM

CC[C@H]1CN(c2sc(-c3nnc[nH]3)c(-c3ccc(Cl)cc3Cl)c2C#N)CCO1
IC50 ([2]; read-out: IC50): < 100 nM

OCCn1cnc2c(-n3c(C(F)F)nc4ccccc43)nc(N3CCOCC3)nc21
IC50 ([2]; read-out: IC50): < 30 nM

CC(=O)Nc1nc2ccc(-c3nn(C4CCCC4)c4ncnc(N)c34)cc2s1
IC50 ([2]; read-out: IC50): < 50 nM | INH [17]: < 0.05 µM

COc1ccccc1S(=O)(=O)Nc1cc(-c2cc(NC(=O)c3csc(CN4C[C@@H](C)O[C@@H](C)C4)n3)c3cn[nH]c3c2)cnc1OC
pIC50 [2]: >= 5 | IC50 [18]: ≤ 10000 nM

O=C(Nc1cc(-c2cnc3[nH]ncc3c2)cc2[nH]ncc12)c1cccc(CN2CCS(=O)(=O)CC2)n1
pIC50 [2]: >= 5 | IC50 [7]: ≤ 10000 nM

CC(C)(Oc1cccc2[nH]c(-c3nccc(-c4cncc(S(N)(=O)=O)c4)n3)cc12)C(=O)O
inhibition [19]: > 95%

Cc1nc(C(=O)Nc2cc(-c3ccnc4[nH]ccc34)cc3[nH]ncc23)cs1
pIC50 [2]: >= 5 | IC50 [7]: ≤ 1000 nM

Cc1nc(C(=O)Nc2cc(-c3cnc4[nH]nc(S(C)(=O)=O)c4c3)cc3[nH]ncc23)cs1
pIC50 [2]: >= 5

COc1cc2c(CC3CCCC(C)C3)c(C(=O)Nc3nn[nH]n3)sc2cc1C (configuration not stated)
IC50 ([2]; read-out: IC50): 3 nM

COc1ccc(-c2nn(C)c3nc(N)nc(NCc4ccccc4)c23)cc1F
IC50 ([2]; read-out: IC50): < 2000 nM

Cc1cccn2c(C(C)Nc3ncnc4[nH]cnc34)c(-c3cc(F)cc(F)c3)nc12 (configuration not stated)
IC50 [1]: < 500 nM | IC50 ([2]; read-out: IC50): < 200 nM
